Measurements from patent publication US9788541B2, “Antibacterial surfactant/microgel formulations, methods of making and methods of using the same” (The University of Toledo, priority 2012, dated 2017).

System: Pseudomonas aeruginosa PAO1
Assay: Antibacterial activity test, viable cell counts by heterotrophic plate count
Assay type: cell-based
Settings: microgel-free surfactant solutions (10 mmol/kg SDS, 14.4 mmol/kg TX-100, 3.0 mmol/kg 40:60 SDS:TX100), 0-30 min; FIG. 5 Groups 6-8
Procedure: The effect of anionic and nonionic surfactants on the microgel antibacterial properties was probed using Pseudomonas aeruginosa (wild-type P. aeruginosa PAOI strain) as model Gram-negative bacteria. The bacteria were cultured in one-tenth strength LB broth (2.5 g/L, Difco Laboratory, Detroit, Mich.) at 37° C. until the late-exponential phase. Bacterial cells were then harvested by centrifugation at 2,000 g for 15 min (using an Eppendorf 5804R centrifuge; Hamburg, Germany), washed and resuspended in phosphate buffer (0.54 g Na2HPQ4 and 0.88 g KH2PO4 per liter, pH=6.98) as bacterial suspensions (0D600=0.25±0.02).
Each antimicrobial formulation sample was then tested in triplicate at room temperature (22±2° C.). The bacterial suspension was mixed with the surfactant/microgel formulations in a 1:1000 ratio (e.g., 15 μl:15 ml). After mixing, samples were taken at 5, 15, and 30 min to quantify the effect of surfactant/microgel formulations on the number of viable cells. The viable cells were enumerated at each time point using the heterotrophic plate count method with R2A agar plates (Difco Laboratories, Detroit, Mich.).
The antibacterial activity of the surfactant/microgel formulations was tested using Pseudomonas aeruginosa PAO1 as a model Gram-negative bacteria. […]

CCCCCCCCCCCCOS(=O)(=O)[O-].[Na+] [SDS, sodium dodecyl sulfate]
effect on bacterial viability: no short-term effect on bacterial viability

t-octylphenoxypolyethoxyethanol [TX100]
effect on bacterial viability: no short-term effect on bacterial viability
